One assay has as its target T1, Jarid1A (Homo sapiens, UniProt P29375).
T1 construct: purchased BPS Bioscience 50110
T1 sequence (P29375 1-1090): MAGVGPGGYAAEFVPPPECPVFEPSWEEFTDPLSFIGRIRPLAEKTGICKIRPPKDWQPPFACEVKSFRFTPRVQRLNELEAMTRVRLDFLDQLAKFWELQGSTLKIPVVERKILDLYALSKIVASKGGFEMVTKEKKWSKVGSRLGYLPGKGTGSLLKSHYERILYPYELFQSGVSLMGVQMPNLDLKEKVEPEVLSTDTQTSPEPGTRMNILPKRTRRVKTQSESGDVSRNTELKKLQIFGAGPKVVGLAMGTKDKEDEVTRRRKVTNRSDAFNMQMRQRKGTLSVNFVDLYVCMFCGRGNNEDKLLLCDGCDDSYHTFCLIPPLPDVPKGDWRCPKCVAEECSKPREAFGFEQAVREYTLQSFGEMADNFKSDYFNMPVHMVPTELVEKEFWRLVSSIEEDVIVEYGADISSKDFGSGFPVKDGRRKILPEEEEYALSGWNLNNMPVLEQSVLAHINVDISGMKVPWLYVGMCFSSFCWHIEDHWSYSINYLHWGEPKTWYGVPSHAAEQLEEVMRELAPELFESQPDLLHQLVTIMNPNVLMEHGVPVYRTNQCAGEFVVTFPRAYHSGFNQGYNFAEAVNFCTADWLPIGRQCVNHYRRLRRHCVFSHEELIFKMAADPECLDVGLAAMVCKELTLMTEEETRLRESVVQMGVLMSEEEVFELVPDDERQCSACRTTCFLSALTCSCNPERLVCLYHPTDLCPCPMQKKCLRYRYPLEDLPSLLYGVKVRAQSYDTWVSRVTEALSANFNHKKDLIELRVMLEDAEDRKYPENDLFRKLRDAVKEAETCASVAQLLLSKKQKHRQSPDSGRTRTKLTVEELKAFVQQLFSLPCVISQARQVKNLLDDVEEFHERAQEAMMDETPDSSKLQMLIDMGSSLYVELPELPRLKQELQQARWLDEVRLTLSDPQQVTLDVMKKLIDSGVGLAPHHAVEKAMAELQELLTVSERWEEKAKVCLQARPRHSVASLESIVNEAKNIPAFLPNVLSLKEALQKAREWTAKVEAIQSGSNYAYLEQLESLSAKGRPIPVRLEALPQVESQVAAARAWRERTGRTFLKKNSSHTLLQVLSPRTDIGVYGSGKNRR
The experiment in a line: Jarid1A in vitro enzyme inhibition assay (TR-FRET). The assay is classed as biochemical. In outline: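 Demethylation of 300 nM biotin-H3K4me3 peptide by 1 nM baculovirus-expressed Jarid1A (aa 1–1090) with 2 μM α-ketoglutarate, Fe(II) and ascorbate, pH 7.3, 30 min at room temperature. Stopped with EDTA; H3K4me1-2 product detected by TR-FRET (Eu anti-H3K4me1-2/streptavidin-APC). IC50 fitted from 665/615 ratio over 11-point dilutions.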

The next assay deals with KDM5A/B. Description: In vitro cell-based assay: immuno-blot quantification of tri-methyl H3K4 in ZR-75-1 breast cancer cells. To be noted: 72 hours, tri-methyl H3K4 level relative to GAPDH, percent of DMSO, read-out: Cellular IC50. The method, boiled down:
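ZR-75-1 breast cancer cells treated 72 h with 11-point compound dilutions (1250 μM to 10 nM). H3K4me3 quantified by infrared immunoblot densitometry, normalized to GAPDH and expressed as percent of DMSO control; relative IC50 from curve fit.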

A value given as a limit tells only on which side of the number the result lay.

Take `O=S(=O)(c1ccccc1)N1CC[C@H](n2cc(Oc3nc(O)c4ccncc4n3)cn2)C1` [Example 138, 2-({1-[(3S)-1-(benzenesulfonyl)pyrrolidin-3-yl]-1H-pyrazol-4-yl}oxy)pyrido[3,4-d]pyrimidin-4-ol]: the half-inhibitory concentration (IC50) was at most 100 nM against Jarid1A and 1000 to 10000 nM in the assay with KDM5A/B.
For `N#CCC(=O)N1CCC[C@@H](n2cc(Oc3nc(O)c4ccncc4n3)cn2)C1` [Example 154, 3-[(3R)-3-[4-({4-hydroxypyrido[3,4-d]pyrimidin-2-yl}oxy)-1H-pyrazol-1-yl]piperidin-1-yl]-3-oxopropanenitrile], the IC50 is at most 100 nM on Jarid1A and over 10000 nM in the assay with KDM5A/B.
As for `O=C(C1CC1)N1CCC[C@H](n2cc(Oc3nc(O)c4ccncc4n3)cn2)C1` [Example 165, 2-({1-[(3S)-1-cyclopropanecarbonylpiperidin-3-yl]-1H-pyrazol-4-yl}oxy)pyrido[3,4-d]pyrimidin-4-ol], the results for the IC50 against Jarid1A and with KDM5A/B were at most 100 nM and 1000 to 10000 nM, respectively.
Turning to `Oc1nc(Oc2cnn([C@@H]3CCNC3)c2)nc2cnccc12` [Example 125, 2-({1-[(3R)-pyrrolidin-3-yl]-1H-pyrazol-4-yl}oxy)pyrido[3,4-d]pyrimidin-4-ol], the IC50 against Jarid1A is at most 100 nM; in the assay with KDM5A/B it was over 10000 nM.
The corresponding values for `O=S(=O)(c1ccccc1)N1CC[C@@H](n2cc(Oc3nc(O)c4ccncc4n3)cn2)C1` [Example 128, 2-({1-[(3R)-1-(benzenesulfonyl)pyrrolidin-3-yl]-1H-pyrazol-4-yl}oxy)pyrido[3,4-d]pyrimidin-4-ol] are at most 100 nM and 1000 to 10000 nM.
In the case of `CC(=O)N1CC[C@H](n2cc(Oc3nc(O)c4ccncc4n3)cn2)C1` [Example 139, 1-[(3S)-3-[4-({4-hydroxypyrido[3,4-d]pyrimidin-2-yl}oxy)-1H-pyrazol-1-yl]pyrrolidin-1-yl]ethan-1-one], the IC50 against Jarid1A was at most 100 nM; with KDM5A/B, over 10000 nM.
The corresponding values for `O=C(c1ccccc1)N1CC[C@H](n2cc(Oc3nc(O)c4ccncc4n3)cn2)C1` [Example 142, 2-({1-[(3S)-1-benzoylpyrrolidin-3-yl]-1H-pyrazol-4-yl}oxy)pyrido[3,4-d]pyrimidin-4-ol] are at most 100 nM and over 10000 nM.
`O=C(C1CC1)N1CCC[C@@H](n2cc(Oc3nc(O)c4ccncc4n3)cn2)C1` [Example 156, 2-({1-[(3R)-1-cyclopropanecarbonylpiperidin-3-yl]-1H-pyrazol-4-yl}oxy)pyrido[3,4-d]pyrimidin-4-ol]: the IC50 against Jarid1A was at most 100 nM; with KDM5A/B, over 10000 nM.
As to `Oc1nc(Oc2cnn([C@@H]3CCN(c4ccc(F)cc4)C3)c2)nc2cnccc12` [Example 134, 2-({1-[(3R)-1-(4-fluorophenyl)pyrrolidin-3-yl]-1H-pyrazol-4-yl}oxy)pyrido[3,4-d]pyrimidin-4-ol], the IC50 at Jarid1A was at most 100 nM; in the assay on KDM5A/B it was 100 to 1000 nM.
With `Cn1cnc(-c2nccc3c(O)nc(Oc4ccc(Cl)c(Cl)c4)nc23)c1` [Example 113, 2-(3,4-dichlorophenoxy)-8-(1-methyl-1H-imidazol-4-yl)pyrido[3,4-d]pyrimidin-4-ol], the IC50 against Jarid1A was at most 100 nM; in the assay with KDM5A/B, 100 to 1000 nM.
For the compound `O=C(C1CC1)N1CC[C@H](n2cc(Oc3nc(O)c4ccncc4n3)cn2)C1` [Example 141, 2-({1-[(3S)-1-cyclopropanecarbonylpyrrolidin-3-yl]-1H-pyrazol-4-yl}oxy)pyrido[3,4-d]pyrimidin-4-ol], the results for the IC50 at Jarid1A and with KDM5A/B were at most 100 nM and over 10000 nM, respectively.
The corresponding values for `Oc1nc(Oc2cnn([C@@H]3CCCN(Cc4ccccc4)C3)c2)nc2cnccc12` [Example 158, 2-({1-[(3R)-1-benzylpiperidin-3-yl]-1H-pyrazol-4-yl}oxy)pyrido[3,4-d]pyrimidin-4-ol] are at most 100 nM and 100 to 1000 nM.
For the compound `O=C(CO)N1CC[C@H](n2cc(Oc3nc(O)c4ccncc4n3)cn2)C1` [Example 155, 2-hydroxy-1-[(3S)-3-[4-({4-hydroxypyrido[3,4-d]pyrimidin-2-yl}oxy)-1H-pyrazol-1-yl]pyrrolidin-1-yl]ethan-1-one], the IC50 was at most 100 nM against Jarid1A and 1000 to 10000 nM with KDM5A/B.
On to `CCC(c1ccccc1)n1cc(Oc2nc(O)c3ccncc3n2)cn1` (centres unmarked) [Example 115, 2-{[1-(1-phenylpropyl)-1H-pyrazol-4-yl]oxy}pyrido[3,4-d]pyrimidin-4-ol], for which the values for the IC50 against Jarid1A and with KDM5A/B were at most 100 nM and 1000 to 10000 nM, respectively.
Regarding `CCS(=O)(=O)N1CC[C@@H](n2cc(Oc3nc(O)c4ccncc4n3)cn2)C1` [Example 126, 2-({1-[(3R)-1-(ethanesulfonyl)pyrrolidin-3-yl]-1H-pyrazol-4-yl}oxy)pyrido[3,4-d]pyrimidin-4-ol], the IC50 was at most 100 nM against Jarid1A and over 10000 nM in the assay with KDM5A/B.
Turning to `O=S(=O)(C1CC1)N1CCCC(n2cc(Oc3nc(O)c4ccncc4n3)cn2)C1` (stereo in doubt) [Example 151, 2-({1-[(3S)-1-(cyclopropanesulfonyl)piperidin-3-yl]-1H-pyrazol-4-yl}oxy)pyrido[3,4-d]pyrimidin-4-ol], the IC50 on Jarid1A was at most 100 nM; in the assay with KDM5A/B, 100 to 1000 nM.
Regarding `CC(=O)N1CCC[C@@H](n2cc(Oc3nc(O)c4ccncc4n3)cn2)C1` [Example 153, 1-[(3R)-3-[4-({4-hydroxypyrido[3,4-d]pyrimidin-2-yl}oxy)-1H-pyrazol-1-yl]piperidin-1-yl]ethan-1-one], the values for the IC50 at Jarid1A and in the assay with KDM5A/B were at most 100 nM and 1000 to 10000 nM, respectively.
On to `N#CCC(=O)N1CC[C@H](n2cc(Oc3nc(O)c4ccncc4n3)cn2)C1` [Example 140, 3-[(3S)-3-[4-({4-hydroxypyrido[3,4-d]pyrimidin-2-yl}oxy)-1H-pyrazol-1-yl]pyrrolidin-1-yl]-3-oxopropanenitrile], for which the values for the half-maximal inhibitory concentration (IC50) against Jarid1A and in the assay on KDM5A/B were at most 100 nM and over 10000 nM, respectively.
For the compound `C[C@@H](c1ccccc1F)n1cc(Oc2nc(O)c3ccncc3n2)cn1` [Example 120, 2-({1-[(1s)-1-(2-fluorophenyl)ethyl]-1H-pyrazol-4-yl}oxy)pyrido[3,4-d]pyrimidin-4-ol], the 50% inhibitory concentration (IC50) on Jarid1A is at most 100 nM; in the assay on KDM5A/B, 1000 to 10000 nM.
Take `Oc1nc(Oc2cnn([C@@H]3CCCN(c4ccc(F)cc4)C3)c2)nc2cnccc12` [Example 159, 2-({1-[(3R)-1-(4-fluorophenyl)piperidin-3-yl]-1H-pyrazol-4-yl}oxy)pyrido[3,4-d]pyrimidin-4-ol]: the IC50 on Jarid1A was at most 100 nM; in the assay on KDM5A/B it was 1000 to 10000 nM.
`C[C@H](c1ccccc1)n1cc(Oc2nc(O)c3ccncc3n2)cn1` [Example 117, 2-({1-[(1R)-1-phenylethyl]-1H-pyrazol-4-yl}oxy)pyrido[3,4-d]pyrimidin-4-ol]: the IC50 at Jarid1A is at most 100 nM; in the assay with KDM5A/B, 1000 to 10000 nM.
On to `CCS(=O)(=O)N1CC[C@H](n2cc(Oc3nc(O)c4ccncc4n3)cn2)C1` [Example 136, 2-({1-[(3S)-1-(ethanesulfonyl)pyrrolidin-3-yl]-1H-pyrazol-4-yl}oxy)pyrido[3,4-d]pyrimidin-4-ol], for which the figures for the IC50 on Jarid1A and in the assay on KDM5A/B were at most 100 nM and 100 to 1000 nM, respectively.
As for `Oc1nc(Oc2cnn([C@H]3CCCN(Cc4ccccc4)C3)c2)nc2cnccc12` [Example 168, 2-({1-[(3S)-1-benzylpiperidin-3-yl]-1H-pyrazol-4-yl}oxy)pyrido[3,4-d]pyrimidin-4-ol], the IC50 was at most 100 nM against Jarid1A and 1000 to 10000 nM with KDM5A/B.
As to `O=C(c1ccccc1)N1CCC[C@@H](n2cc(Oc3nc(O)c4ccncc4n3)cn2)C1` [Example 157, 2-({1-[(3R)-1-benzoylpiperidin-3-yl]-1H-pyrazol-4-yl}oxy)pyrido[3,4-d]pyrimidin-4-ol], the IC50 against Jarid1A was at most 100 nM; in the assay on KDM5A/B it was 1000 to 10000 nM.
For `CC(=O)N1CCC[C@H](n2cc(Oc3nc(O)c4ccncc4n3)cn2)C1` [Example 164, 1-[(3S)-3-[4-({4-hydroxypyrido[3,4-d]pyrimidin-2-yl}oxy)-1H-pyrazol-1-yl]piperidin-1-yl]ethan-1-one] the same measures were at most 100 nM and 1000 to 10000 nM.

For the origin of these results see US10526327B2, “Histone demethylase inhibitors” (CELGENE QUANTICEL RESEARCH, INC., priority 2013, dated 2020).
